Data set [1] is described as follows: Stability of oxaloacetate solutions. It counts as physicochemical. The following applies: cell culture medium. As for the experimental part:
To test the effect of oxaloacetate (OA) on glioma cells in vitro, C6 glioma cells were incubated with 1 mM oxaloacetate. Since oxaloacetate solutions are unstable, the cell culture medium was changed every day to allow the cells to be daily exposed to a fresh oxaloacetate solution.

The next data set concerns C6 glioma. The data set is described as follows: C6 glioma implanted in rat striatum, tumor growth followed by MRI. It is filed as in vivo. Conditions: 0.2M oxaloacetate in drinking water from day 7, MRI 10 days later, in average. The method, then:
Male SPD&OLD rats weighing 260-280 g were used and placed in individual cages. All experiments were conducted according to the guidelines of the institutional animal care and use committee of the Weizmann Institute of Science, Rehovot, Israel.
Rat C6 glioma cells were grown in DMEM medium supplemented with 10% FCS. 10^7 cells were plated on 100×20 mm dishes and grown to 80% confluence for two days, passaged at a dilution of 1:10 after 1-2 min exposure to 0.25% trypsin and plated on 7 plates 60×15 mm. The cells were grown to 80% confluence for two additional days. The cells were then trypsynized as above, washed once with sterile PBS and centrifuged for 15 min at 1200 rpm. Prior to centrifugation, the cells were counted in a hemocytometer. Following centrifugation, the medium was removed and the cells were diluted in sterile PBS to a final concentration […] was injected immediately intracranially. For that purpose, the rats were anesthetized with 1.5% Halothane and placed in a stereotactic apparatus. […]
Experiments on live animals were conducted on a Bio spec Avance™ system (Bruker Biospin, Ettlingen, Germany) with a 4.7 T 30-cm horizontal bore magnet. […] The volume of the tumor was assessed using the Surdriver program.
After establishing that oxaloacetate has no effect on glioma growth when grown under in vitro conditions, the effect of same in vivo was determined. […]

Turning to `O=C(O)CC(=O)C(=O)O` [oxaloacetate], in data set [1], the stability of solutions entry is “unstable”. Further, the “Tumor spread, less than that of untreated animals that received drinking water only” value in the data set with C6 glioma is given as “at least 10 folds”.

The record behind these values is patent US10159717B2, “Methods of treating cancer of the central nervous system” (Yeda Research and Development Co. Ltd., priority 2008, dated 2018).
